Entries after “also recorded” stand apart in the source; their conditions may differ.

Here are results for one compound from article PMC12460146, “Impact of metabolic enzyme activity variability on dabrafenib disposition” (Frontiers in Pharmacology, 2025).

The target of data set [1] is T1, CYP3A4.20 (Homo sapiens, UniProt P08684).
T1 construct: made in house; host or cells: insect cells (baculovirus, pFastBac-Dual)
Description: In vitro enzyme kinetics assay using CYP3A4 baculosomes: CYP3A4.20. Type of data set: in vitro ADME. Here is the method: (§1) Recombinant CYP3A4 and CYPb5 proteins were prepared according to our previously established protocol ([Fang et al., 2017]). Briefly, dual expression vectors (pFastBac-Dual) were used to construct CYP3A4-CYPOR and CYPb5-CYPOR expression plasmids. Subsequently, the corresponding baculosomes were harvested by ultracentrifugation using the baculovirus-insect cell expression system, and the target proteins were confirmed. Protein expression levels for each type were qualitatively and quantitatively assessed by Western blotting and BCA assay, respectively.
(§2) The 200 µL incubation system comprised 0.1 M Tris-HCl, 5 µg CYP3A4.1 or other CYP3A4 variants, 5 µg CYPb5, 1 mM NADPH, and dabrafenib. A dabrafenib concentration of 10 µM was used to evaluate variant specific metabolic activity. Michaelis-Menten kinetics were assessed using dabrafenib concentrations of 5, 10, 20, 50, 100, and 250 µM. Subsequent processing steps followed the procedures outlined in Section 2.3.

In data set [2] the test system is human liver microsomes (HLM). Description: Michaelis-Menten kinetics of dabrafenib metabolism (hydroxy-dabrafenib formation) in HLM. Type of data set: in vitro ADME. As to conditions: HLM 0.5 mg/mL, dabrafenib 0.5–200 µM. Here is the method:
(§3) The 200 µL incubation system contained 0.1 M Tris-HCl (pH = 7.6), 0.5 mg/mL RLM or HLM, 1 mM NADPH, and dabrafenib. […] Carbamazepine (100 ng/mL) was added as the IS. […] Hydroxy-dabrafenib concentrations were quantified via UPLC-MS/MS.
(§4) For kinetic studies, Michaelis-Menten curves were obtained using dabrafenib concentrations (0.5–200 µM) in RLM and HLM. Samples were processed as above. Curves were plotted (dabrafenib concentration vs. V) and fitted nonlinearly (Prism 9, GraphPad).
The concentrations of dabrafenib and hydroxy-dabrafenib were quantified by UPLC-MS/MS. Chromatographic separation was performed on a Waters Acquity UPLC BEH C18 column (2.1 mm × 50 mm, 1.7 µm particle size) maintained at 40 °C. The mobile phase consisted of 0.1% aqueous formic acid (A) and acetonitrile (B), delivered at 0.3 mL/min with the following gradient program: 90% A (0–0.15 min), linear transition to 10% A (0.15–0.8 min), 10% A (0.8–1.5 min), and return to 90% A (1.5–2 min). Total run time was 2 min. Detection employed a Waters Xevo TQS triple quadrupole mass spectrometer (Milford, MA, United States) operated in positive-ion multiple reaction monitoring mode. Quantification transitions were m/z 520.10 → 307.20 for dabrafenib, m/z 536.20 → 323.10 for hydroxy-dabrafenib, and m/z 237.10 → 194.10 for IS.

Data set [3] addresses T2, CYP3A4.8 (Homo sapiens, UniProt P08684, R130Q).
T2 construct: made in house; host or cells: insect cells (baculovirus, pFastBac-Dual)
Put plainly: In vitro enzyme kinetics assay using CYP3A4 baculosomes: CYP3A4.8. Type of data set: in vitro ADME. Here is the method: as §1, §2

Data set [4] deals with T3, CYP3A4.1 (Homo sapiens, UniProt P08684).
T3 construct: made in house; host or cells: insect cells (baculovirus, pFastBac-Dual)
T3 sequence (P08684 whole entry): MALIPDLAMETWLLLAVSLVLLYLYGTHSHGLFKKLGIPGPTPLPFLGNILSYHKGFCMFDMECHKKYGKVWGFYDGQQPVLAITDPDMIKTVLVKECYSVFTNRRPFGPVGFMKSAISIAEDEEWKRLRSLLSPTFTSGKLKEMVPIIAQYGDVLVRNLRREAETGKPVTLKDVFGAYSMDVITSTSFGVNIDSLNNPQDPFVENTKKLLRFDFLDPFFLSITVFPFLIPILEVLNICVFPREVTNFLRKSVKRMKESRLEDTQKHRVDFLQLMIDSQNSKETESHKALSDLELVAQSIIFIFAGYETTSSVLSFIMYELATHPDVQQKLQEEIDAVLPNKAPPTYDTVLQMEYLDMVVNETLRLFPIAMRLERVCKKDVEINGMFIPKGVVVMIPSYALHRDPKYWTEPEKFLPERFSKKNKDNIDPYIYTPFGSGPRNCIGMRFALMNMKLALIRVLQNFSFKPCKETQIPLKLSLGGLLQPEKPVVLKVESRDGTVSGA
Put plainly: In vitro enzyme kinetics assay using CYP3A4 baculosomes: CYP3A4.1. The data set is classed as in vitro ADME. Conditions: dabrafenib 5–250 µM. Here is the method: as §1, §2

The target in data set [5] is T4, CYP3A4.28 (Homo sapiens, UniProt P08684, L22V).
T4 construct: made in house; host or cells: insect cells (baculovirus, pFastBac-Dual)
T4 sequence (P08684 whole entry L22V): as the sequence (P08684 whole entry) above, with L22V counted along it
Put plainly: In vitro enzyme kinetics assay using CYP3A4 baculosomes: CYP3A4.28. The data set is classed as in vitro ADME. Here is the method: as §1, §2

The conditions of data set [6]: cited from earlier work.
For data set [7], the system named is rat liver microsomes (RLM). Put plainly: Michaelis-Menten kinetics of dabrafenib metabolism (hydroxy-dabrafenib formation) in RLM. The data set is classed as in vitro ADME. Conditions: RLM 0.5 mg/mL, dabrafenib 0.5–200 µM. Here is the method: RLM was obtained according to established methods ([Wang et al., 2015]). Briefly, rat livers were weighed and homogenized in ice-cold phosphate buffer containing […] sucrose. The homogenate was centrifuged at 17,000 × g for 15 min at 4 °C. The supernatant was transferred to new tubes and recentrifuged at 17,000 × g for 15 min. The resulting supernatant was then ultracentrifuged at 100,000 × g for 60 min at 4 °C. The microsomal pellet was resuspended in ice-cold 0.01 mmol/L PBS (pH = 7.2–7.4). Protein concentration was determined using a Bradford assay kit (Thermo Scientific, Waltham, MA, United States).
as §3, §4
The concentrations of dabrafenib and hydroxy-dabrafenib were quantified by UPLC-MS/MS. […] Quantification transitions were m/z 520.10 → 307.20 for dabrafenib, m/z 536.20 → 323.10 for hydroxy-dabrafenib, and m/z 237.10 → 194.10 for IS.

T1 sequence (P08684 with tags, fused parts or gaps limits assumed): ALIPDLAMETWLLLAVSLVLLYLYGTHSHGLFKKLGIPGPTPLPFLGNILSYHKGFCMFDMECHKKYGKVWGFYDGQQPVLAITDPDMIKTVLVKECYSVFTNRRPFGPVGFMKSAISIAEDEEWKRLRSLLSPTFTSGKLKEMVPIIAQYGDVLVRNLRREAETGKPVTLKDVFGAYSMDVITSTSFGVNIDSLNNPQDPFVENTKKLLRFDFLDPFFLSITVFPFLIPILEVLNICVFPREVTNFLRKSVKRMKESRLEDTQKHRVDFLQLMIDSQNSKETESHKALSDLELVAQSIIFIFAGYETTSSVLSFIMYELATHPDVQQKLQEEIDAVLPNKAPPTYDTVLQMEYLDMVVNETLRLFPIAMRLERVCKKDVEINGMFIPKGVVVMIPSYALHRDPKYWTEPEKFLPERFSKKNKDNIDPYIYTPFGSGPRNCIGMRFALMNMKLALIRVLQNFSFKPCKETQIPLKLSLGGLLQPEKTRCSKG
T2 sequence (P08684 whole entry R130Q): as the sequence (P08684 whole entry) above, with R130Q counted along it

For `CC(C)(C)c1nc(-c2cccc(NS(=O)(=O)c3c(F)cccc3F)c2F)c(-c2ccnc(N)n2)s1` [Dabrafenib], in data set [1], the “metabolic activity toward dabrafenib (in words)” value is recorded as “nearly complete loss of activity; also recorded: lack catalytic activity”. In addition, the Km (as a rule, the concentration of substrate that gives half-maximal velocity) was found to be 3.5 ± 0.56 µM in data set [2] and 14.6 ± 3.08 µM in data set [7]. Moreover, the Vmax in data set [2] was found to be 0.16 ± 0.001 pmol/L/min/µg; in data set [3] (dabrafenib 5–250 µM), 0.247 ± 0.030 pmoL/L/min/μg CYP3A4; in data set [4], 0.266 ± 0.007 pmoL/L/min/μg CYP3A4; in data set [5] (dabrafenib 5–250 µM) it was 0.362 ± 0.026 pmoL/L/min/μg CYP3A4; in data set [7], 0.14 ± 0.01 pmol/L/min/µg. In data set [3], the “decrease of relative clearance vs CYP3A4.1” value was 66.67%. Further, the “increase of relative clearance vs CYP3A4.1” value in data set [5] was 26.67%. Besides, the Cmax in data set [6] (single 150 mg oral dose, clinical, ref Puszkiel et al., 2019, Balakirouchenane et al., 2021) is listed as 2,160 ng/mL. In addition, the “oral bioavailability (F)” value in data set [6] (single-dose administration, ref Denton et al., 2013) is 95%.
